# Laboratory results reported in ChEMBL document CHEMBL1139572 (Bioorg Med Chem Lett, 2005).
# Assays:
# Progesterone receptor [1] = molecular target: T1, Progesterone receptor (Homo sapiens, UniProt P06401); assay: Inhibition of 4 nM progesterone-stimulated transactivation of MMTV-Luc reporter in CV-1 cells expressing PR-B; format: functional, cell-based
# T1 sequence (P06401 whole entry): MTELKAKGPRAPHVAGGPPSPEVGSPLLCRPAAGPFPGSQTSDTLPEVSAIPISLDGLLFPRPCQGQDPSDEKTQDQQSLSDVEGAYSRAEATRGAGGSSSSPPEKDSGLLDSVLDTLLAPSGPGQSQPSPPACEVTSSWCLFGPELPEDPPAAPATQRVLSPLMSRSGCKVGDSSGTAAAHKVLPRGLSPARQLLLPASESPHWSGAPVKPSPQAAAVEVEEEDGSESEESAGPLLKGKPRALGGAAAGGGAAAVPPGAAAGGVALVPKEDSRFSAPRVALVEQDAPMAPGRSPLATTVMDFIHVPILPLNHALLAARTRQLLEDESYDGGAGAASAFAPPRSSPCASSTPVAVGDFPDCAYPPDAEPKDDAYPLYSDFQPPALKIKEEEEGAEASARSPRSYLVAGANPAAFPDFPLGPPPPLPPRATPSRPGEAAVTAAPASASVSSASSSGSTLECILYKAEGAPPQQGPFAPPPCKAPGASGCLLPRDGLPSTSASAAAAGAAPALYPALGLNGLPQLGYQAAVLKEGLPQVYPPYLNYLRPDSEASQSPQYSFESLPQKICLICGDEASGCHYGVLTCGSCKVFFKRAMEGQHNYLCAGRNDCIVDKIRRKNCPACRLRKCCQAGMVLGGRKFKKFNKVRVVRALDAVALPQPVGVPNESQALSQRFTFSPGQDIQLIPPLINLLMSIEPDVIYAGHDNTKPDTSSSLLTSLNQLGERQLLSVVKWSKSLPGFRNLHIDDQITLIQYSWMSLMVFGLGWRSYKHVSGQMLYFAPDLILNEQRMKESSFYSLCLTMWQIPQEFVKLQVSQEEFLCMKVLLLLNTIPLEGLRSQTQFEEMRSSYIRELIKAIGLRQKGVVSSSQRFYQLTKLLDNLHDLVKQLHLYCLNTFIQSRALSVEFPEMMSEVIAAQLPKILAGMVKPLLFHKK
# Progesterone receptor [2] = molecular target: T1, Progesterone receptor; assay: Displacement of fluorescent ligand from binding domain of progesterone receptor
Structure (SMILES),Log IC50 (Progesterone receptor [1]),Ki (Progesterone receptor [2]) [nM]
CC1CC(c2ccc(Cl)c(Cl)c2)=NN1S(=O)(=O)c1ccc(Cl)cc1 (stereo unspecified),-6.7,39.8
CN(C)c1ccc(C2CN(S(=O)(=O)c3ccc(Cl)cc3)N=C2c2ccc(Cl)c(Cl)c2)cc1 (stereo unspecified),-6.1,39.8
CC1CN(S(=O)(=O)c2ccc(Cl)cc2)N=C1c1ccc(Cl)c(Cl)c1 (stereo unspecified),–,39.8
O=S(=O)(c1ccc(Cl)cc1)N1N=C(c2ccc(Cl)c(Cl)c2)CC1c1ccccc1 (stereo unspecified),-6.4,7940
O=S(=O)(c1ccc(Cl)cc1)N1CC(c2ccccc2)C(c2ccc(Cl)c(Cl)c2)=N1 (stereo unspecified),–,100
C[C@@H]1CN(S(=O)(=O)c2ccc(Cl)cc2)N=C1c1ccc(Cl)c(Cl)c1,-5.3,2000
C[C@H]1CN(S(=O)(=O)c2ccc(Cl)cc2)N=C1c1ccc(Cl)c(Cl)c1,-7.6,20
CN(C)c1ccc([C@@H]2CN(S(=O)(=O)c3ccc(Cl)cc3)N=C2c2ccc(Cl)c(Cl)c2)cc1,-5.8,100
CN(C)c1ccc([C@H]2CN(S(=O)(=O)c3ccc(Cl)cc3)N=C2c2ccc(Cl)c(Cl)c2)cc1,> -5.5,> 10000
